In article PMC12008195 (Scientific Reports, 2025):

Legend:
HepG-2 cells [1] = experiment: Cell cycle analysis, propidium iodide flow cytometry; format: cell-based, human; conditions: 3b at 6 µM
[2] = tested on: MCF-7 (mammary gland breast cancer); conditions: read-out: IC50 MCF-7; MTT, 24-hour exposure; cited from earlier work
[3] = tested on: HCT-116 (human colon cancer); conditions: read-out: IC50 HCT-116; MTT, 24-hour exposure; cited from earlier work
HepG-2 cells [4] = experiment: Annexin-V/propidium iodide staining assay; format: cell-based, human
[5] = cited from earlier work
[6] = tested on: HepG2 (hepatocellular carcinoma); conditions: read-out: IC50 HepG-2; MTT, 24-hour exposure; cited from earlier work
[7] = tested on: WI-38 (human lung fibroblasts); conditions: read-out: IC50 WI-38 human fibroblasts; MTT, normal non-cancer cells; cited from earlier work
Bcl-2 = experiment: RT-PCR gene expression of Bcl-2 in HepG-2 cells; format: cell-based, human; conditions: versus untreated cells

Compound: Cc1cc2c(cc1C)N[C@H](c1ccccc1)[C@@H](O)C(=O)N2 [Compound 3b, (3R,4R)−3-hydroxy-7,8-dimethyl-4-phenyl-1,3,4,5-tetrahydro-2 H-1,5-benzodiazepin-2-one]
- Increase of DNA content at G2/M phase compared to non-treated cells (HepG-2 cells [1]): 28%
- IC50 [2]: 7.86 µM
- IC50 [3]: 9.18 µM
- Fold increase in the proportion of necrotic cells versus control (HepG-2 cells [4]): 2.6 fold
- Lipinski's rule of five ([5]; MW ≤ 500 Da, LogP < 5, nHBD ≤ 5, nHBA ≤ 10, TPSA < 140 Å2): satisfied
- Predicted oral bioavailability ([5]; in silico studies): good
- IC50 [6]: 6.13 µM
- IC50 [7]: 14 µM
- Gene expression fold change Bcl-2 (Bcl-2): 0.339 fold
